Experimental data: paper doi:10.1101/2022.09.08.507076v2 (biorxiv, 2022)

How the values were obtained:
Format in all cases: biochemical
CYP3A4 = CYP3A4 (Homo sapiens, UniProt P08684); test: recombinant CYP inhibition, fluorescence
CYP2D6 = CYP2D6 (Homo sapiens, UniProt P10635); test: recombinant CYP inhibition, fluorescence
CYP2C9 = CYP2C9 (Homo sapiens, UniProt P11712); test: recombinant CYP inhibition, fluorescence
CYP2C19 = CYP2C19 (Homo sapiens, UniProt P33261); test: recombinant CYP inhibition, fluorescence
CYP1A2 = target: T1, CYP1A2 (Homo sapiens, UniProt P05177); test: recombinant CYP inhibition, fluorescence
T1 sequence (P05177 2-516): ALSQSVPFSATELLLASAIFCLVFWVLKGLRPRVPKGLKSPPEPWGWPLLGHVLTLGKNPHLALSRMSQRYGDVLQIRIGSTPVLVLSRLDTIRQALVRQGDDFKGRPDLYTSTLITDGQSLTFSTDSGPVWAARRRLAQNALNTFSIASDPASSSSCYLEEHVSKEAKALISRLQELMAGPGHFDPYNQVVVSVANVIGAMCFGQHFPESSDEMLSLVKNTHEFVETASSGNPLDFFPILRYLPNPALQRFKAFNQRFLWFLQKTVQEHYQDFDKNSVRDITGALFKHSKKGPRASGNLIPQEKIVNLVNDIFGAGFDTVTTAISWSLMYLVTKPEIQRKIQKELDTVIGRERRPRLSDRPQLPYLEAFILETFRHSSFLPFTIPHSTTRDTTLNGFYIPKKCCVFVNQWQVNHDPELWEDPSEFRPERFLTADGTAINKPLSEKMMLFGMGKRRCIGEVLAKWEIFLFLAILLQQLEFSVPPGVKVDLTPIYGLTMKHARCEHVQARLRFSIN

human topoisomerase IIα = human topoisomerase IIα (Homo sapiens, UniProt P11388); test: human topoisomerase IIα decatenation assay
human topoisomerase IIα, sequence (P11388 whole entry): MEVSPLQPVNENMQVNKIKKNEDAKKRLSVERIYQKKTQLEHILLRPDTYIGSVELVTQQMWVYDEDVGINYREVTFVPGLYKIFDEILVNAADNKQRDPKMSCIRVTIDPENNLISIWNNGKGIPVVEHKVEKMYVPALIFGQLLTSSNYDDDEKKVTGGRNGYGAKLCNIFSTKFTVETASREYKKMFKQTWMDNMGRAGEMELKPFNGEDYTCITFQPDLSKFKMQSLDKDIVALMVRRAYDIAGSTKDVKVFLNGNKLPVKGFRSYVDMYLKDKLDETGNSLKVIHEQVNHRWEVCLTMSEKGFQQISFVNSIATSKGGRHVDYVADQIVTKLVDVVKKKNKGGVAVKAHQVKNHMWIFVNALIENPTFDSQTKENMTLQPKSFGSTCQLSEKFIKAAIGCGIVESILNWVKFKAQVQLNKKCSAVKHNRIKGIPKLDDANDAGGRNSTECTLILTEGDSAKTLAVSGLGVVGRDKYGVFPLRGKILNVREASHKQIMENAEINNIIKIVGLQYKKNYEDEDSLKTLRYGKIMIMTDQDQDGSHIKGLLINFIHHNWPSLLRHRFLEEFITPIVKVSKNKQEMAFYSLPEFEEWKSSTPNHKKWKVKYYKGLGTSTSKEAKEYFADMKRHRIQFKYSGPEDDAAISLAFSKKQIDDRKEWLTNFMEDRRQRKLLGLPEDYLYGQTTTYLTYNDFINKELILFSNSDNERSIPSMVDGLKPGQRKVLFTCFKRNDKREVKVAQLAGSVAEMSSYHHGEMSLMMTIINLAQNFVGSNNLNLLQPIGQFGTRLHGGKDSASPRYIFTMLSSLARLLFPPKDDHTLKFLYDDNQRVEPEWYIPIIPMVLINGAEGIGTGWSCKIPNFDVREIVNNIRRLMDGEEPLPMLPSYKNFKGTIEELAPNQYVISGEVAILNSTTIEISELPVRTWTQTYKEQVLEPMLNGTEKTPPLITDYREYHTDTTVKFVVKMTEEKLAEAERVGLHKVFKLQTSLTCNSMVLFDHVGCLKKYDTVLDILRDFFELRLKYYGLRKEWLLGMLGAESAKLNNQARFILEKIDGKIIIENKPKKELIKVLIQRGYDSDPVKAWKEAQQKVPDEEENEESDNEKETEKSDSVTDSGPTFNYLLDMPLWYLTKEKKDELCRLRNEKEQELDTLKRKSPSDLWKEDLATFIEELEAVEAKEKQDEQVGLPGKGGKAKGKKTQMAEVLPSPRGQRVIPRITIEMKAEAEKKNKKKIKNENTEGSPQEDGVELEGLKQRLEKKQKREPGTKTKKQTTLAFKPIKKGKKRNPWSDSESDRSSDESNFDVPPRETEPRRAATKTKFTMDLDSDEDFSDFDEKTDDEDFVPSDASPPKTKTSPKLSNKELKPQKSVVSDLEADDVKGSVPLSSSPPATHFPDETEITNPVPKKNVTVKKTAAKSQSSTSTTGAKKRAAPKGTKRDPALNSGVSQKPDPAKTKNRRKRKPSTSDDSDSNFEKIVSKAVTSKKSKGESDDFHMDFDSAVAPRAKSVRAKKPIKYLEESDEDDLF

CYP2C9, sequence (P11712 whole entry): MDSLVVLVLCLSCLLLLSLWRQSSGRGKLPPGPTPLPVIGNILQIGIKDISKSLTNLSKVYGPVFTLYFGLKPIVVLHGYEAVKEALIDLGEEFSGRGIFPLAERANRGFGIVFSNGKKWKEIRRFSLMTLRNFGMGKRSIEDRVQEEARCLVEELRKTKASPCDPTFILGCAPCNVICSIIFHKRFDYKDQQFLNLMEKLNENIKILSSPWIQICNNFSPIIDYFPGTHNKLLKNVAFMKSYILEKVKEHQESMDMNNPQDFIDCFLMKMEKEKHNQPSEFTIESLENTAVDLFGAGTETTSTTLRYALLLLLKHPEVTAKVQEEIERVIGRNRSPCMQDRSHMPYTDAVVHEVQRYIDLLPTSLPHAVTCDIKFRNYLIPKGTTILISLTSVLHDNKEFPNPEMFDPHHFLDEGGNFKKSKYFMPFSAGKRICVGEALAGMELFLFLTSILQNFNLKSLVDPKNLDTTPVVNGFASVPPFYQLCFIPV
CYP2C19, sequence (P33261 whole entry): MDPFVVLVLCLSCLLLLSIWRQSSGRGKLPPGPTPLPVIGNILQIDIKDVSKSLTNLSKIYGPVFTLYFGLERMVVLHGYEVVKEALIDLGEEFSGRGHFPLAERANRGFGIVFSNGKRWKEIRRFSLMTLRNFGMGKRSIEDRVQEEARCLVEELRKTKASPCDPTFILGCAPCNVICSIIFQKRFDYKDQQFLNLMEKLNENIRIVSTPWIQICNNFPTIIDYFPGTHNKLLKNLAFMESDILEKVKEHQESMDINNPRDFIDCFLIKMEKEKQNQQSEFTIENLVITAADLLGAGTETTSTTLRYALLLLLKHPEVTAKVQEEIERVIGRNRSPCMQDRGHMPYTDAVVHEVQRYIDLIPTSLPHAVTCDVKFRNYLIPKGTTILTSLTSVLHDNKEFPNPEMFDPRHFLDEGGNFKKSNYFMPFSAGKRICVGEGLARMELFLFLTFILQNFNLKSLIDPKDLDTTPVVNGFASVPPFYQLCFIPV
CYP3A4, sequence (P08684 2-503): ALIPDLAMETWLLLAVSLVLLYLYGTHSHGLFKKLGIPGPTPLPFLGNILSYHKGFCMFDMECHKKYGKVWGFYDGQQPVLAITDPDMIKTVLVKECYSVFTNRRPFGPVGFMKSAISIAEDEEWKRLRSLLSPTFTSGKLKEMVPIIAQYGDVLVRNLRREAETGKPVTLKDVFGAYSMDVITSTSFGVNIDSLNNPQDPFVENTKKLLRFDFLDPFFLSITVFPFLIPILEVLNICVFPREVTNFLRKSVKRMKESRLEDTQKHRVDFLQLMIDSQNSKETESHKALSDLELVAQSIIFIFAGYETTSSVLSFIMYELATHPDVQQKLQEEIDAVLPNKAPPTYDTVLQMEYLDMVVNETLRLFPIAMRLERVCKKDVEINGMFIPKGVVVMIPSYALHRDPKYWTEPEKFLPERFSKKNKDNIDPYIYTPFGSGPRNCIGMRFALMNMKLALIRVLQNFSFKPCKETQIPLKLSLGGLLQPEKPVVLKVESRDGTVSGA
CYP2D6, sequence (P10635 whole entry): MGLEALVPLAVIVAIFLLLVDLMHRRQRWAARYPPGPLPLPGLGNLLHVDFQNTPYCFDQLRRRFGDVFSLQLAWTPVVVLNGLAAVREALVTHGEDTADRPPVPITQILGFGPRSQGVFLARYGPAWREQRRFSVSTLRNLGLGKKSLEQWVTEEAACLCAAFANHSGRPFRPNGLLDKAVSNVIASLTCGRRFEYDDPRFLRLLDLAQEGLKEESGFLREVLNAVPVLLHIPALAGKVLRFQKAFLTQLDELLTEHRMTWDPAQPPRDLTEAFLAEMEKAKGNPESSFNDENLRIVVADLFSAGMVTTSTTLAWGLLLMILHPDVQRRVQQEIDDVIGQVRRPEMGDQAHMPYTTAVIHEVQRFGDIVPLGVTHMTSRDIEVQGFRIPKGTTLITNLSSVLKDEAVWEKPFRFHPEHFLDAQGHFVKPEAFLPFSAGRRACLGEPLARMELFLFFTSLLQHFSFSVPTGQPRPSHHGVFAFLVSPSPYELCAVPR

| IC50 (CYP3A4) [µM] | IC50 (CYP2D6) [µM] | IC50 (CYP2C9) [µM] | IC50 (CYP2C19) [µM] | IC50 (CYP1A2) [µM] | IC50 (human topoisomerase IIα) [µM] | Compound |
| --- | --- | --- | --- | --- | --- | --- |
| > 10 | > 10 | > 10 | > 10 | > 10 | > 959 | CCNC(=O)Nc1nc2c(F)c(-c3cnc(N4CCC(C(=O)O)CC4)nc3)cc(-c3ccccn3)c2s1 [RBx 10080758] |
| > 10 | > 10 | > 10 | > 10 | > 10 | > 993 | CCNC(=O)Nc1nc2c(F)c(-c3ccc(COP(=O)(O)O)nc3)cc(-c3ccccn3)c2s1 [RBx 10115912] |
